Assay results published in publication PMC11510329, “Molecular Networking, Docking, and Biological Evaluation of Licarin A from Myristica fragrans as a Potential Cancer Chemopreventive Agent” (Molecules, 2024).
pIC50: −log10 of the molar value.

Assays:
[1] = system: DU-145 prostate cancer cells; assay: Cell viability crystal violet assay; type: cell-based, Homo sapiens; details: rocaglamide at concentrations higher than 6 μM
Procedure: The cell viability of DU-145 prostate cancer cells was evaluated after treatment with 1, 2, and the positive control rocaglamide using the protocol from a Phospho-NF-kappaBp65 (S468 + S536) and Total In-Cell ELISA Kit (ab207482) (Abcam Inc., Waltham, MA, USA), after initial PhosphoNF-κBp65 translocation steps (Section 4.11).

[2] = system: Hepa1c1c7 mouse hepatoma cells; assay: Cell oxidative stress real-time dose–response assay (ROS, DCFH-DA); type: cell-based
Procedure: A reactive oxygen species (ROS) assay was performed following a previously described procedure. The generated intracellular levels of ROS were measured using the fluorescent probe 2′,7′-dichlorodihydrofluorescein diacetate (DCFH-DA). Hepa1c1c7 mouse hepatoma cells were seeded in a 96-well plate, treated with 1, 2, or the positive control rocaglamide, followed by 5 h incubation at 37 °C with 5% CO2. Subsequently, cells were incubated with H2O2 (1.25 mM) and FeSO4 for 30 min at 37 °C. Later, the fluorescent probe DCFH-DA was added to determine intracellular ROS. Fluorescence was measured using a FLUOstar Optima fluorescence plate reader (BMG Labtech Inc., Durham, NC, USA) at an excitation wavelength of 485 nm and emission wavelength of 530 nm. All treatments performed in triplicate were representative of at least two different experiments.

zebrafish (Danio rerio) = assay: Toxicity assay in zebrafish; details: for morphological changes / developmental abnormalities: tamoxifen 50 μM at 48 h, 1 100 μM at 48 h, 2 100 μM at 24 h
Procedure: Animals were provided by the Department of Neuroscience at The Ohio State University (OSU) (OSU IACUC-approved animal protocol number 2014A00000006-R1-AR1). Zebrafish embryos were housed in aquaculture water at 28 °C with a 14 h/10 h light/dark cycle. After 24 h post fertilization (hpf), groups of random embryos were exposed to different concentrations (0, 50, or 100 μM, n = 25) for 24 and 48 h. Then, images of the zebrafish were taken using an Axiovert 40 CFL Zeiss microscope and ProgRes C10 plus camera. Morphological changes in zebrafish development were determined and recorded.

[3] = system: HT-29 human colon cancer cells; details: nanomolar range; cited from earlier work
[4] = system: phosphoNF-κBp65 in DU-145 prostate cancer cells; assay: PhosphoNF-κBp65 assay (In-Cell ELISA); type: cell-based, Homo sapiens
Procedure: PhosphoNF-κBP65 phosphorylation levels were evaluated using the protocol from an Abcam Phospho-NF-kappaBp65 ([…] + […]) + Total In-Cell ELISA Kit (ab207482) (Abcam Inc., Waltham, MA, USA). The effects of 1, the natural product chemopreventive positive control 2, and a rocaglamide positive control in the PhosphoNF-κBp65 assay activity were measured using a FLUOstar Optima plate reader. DU-145 or Hepa1c1c7 cells (5 × 10^4 cells/well) were seeded in a white 96-well plate and treated (0-150 μM) for 5 h. Afterwards, luminescence was measured using a FLUOstar Optima plate reader.

[5] = system: DU-145 prostate cancer cells; assay: SRB cell cytotoxicity assay; type: cell-based, Homo sapiens; details: DU-145 human prostate cancer cells
Procedure: (§1) The antiproliferative effects of 1, the chemopreventive control 2, and the positive control paclitaxel were measured using a sulforhodamine B (SRB) cytotoxicity assay. Briefly, DU-145 prostate cancer cells (5 × 10^4 cells/well) were seeded in a 96-well plate overnight. Then, the cells were treated at different concentrations ranging from 0 to 150 μM with each test compound for 24, 48, and 72 h (Supplementary Figure S7). After being treated, the cells were incubated with cold trichloroacetic acid (20%, 30 min), washed with tap water, stained with SRB (0.4%, 30 min), and washed subsequently with acetic acid (1%). Finally, the unbound dye was solubilized using 200 μL of Tris-base (10 mM) and the absorbance read at 515 nm using a FLUOstar Optima microplate reader (BMG Labtech Inc., Durham, NC, USA). The percent inhibition was determined by using the formula provided in the prior publication.

[6] = SRB cell cytotoxicity assay; type: cell-based, Homo sapiens; details: human, DU-145 prostate cancer cells; DU-145; Supplementary Figure S7; read-out: cytotoxic concentration in vitro (IC50)
Procedure: as §1

COc1ccc([C@@]23Oc4cc(OC)cc(OC)c4[C@]2(O)[C@H](O)[C@H](C(=O)N(C)C)[C@H]3c2ccccc2)cc1 [Rocaglamide, reference compound]
cell viability (crystal violet) [1]: maintained the same level of cell viability

O=C(/C=C/c1ccc(O)cc1)c1ccc(O)cc1O [compound 2, Isoliquiritigenin, reference compound]
duration of reduction in cellular stress (time until activity degrades) ([2]; 48 nM, assay duration 60 min): 30 min
% of hatching (zebrafish (Danio rerio); 24 h exposure, tamoxifen 50 μM, 1 and 2 100 μM, mean ± SEM): 100%
morphological changes / developmental abnormalities (zebrafish (Danio rerio)): curved spines or shortened tails

C/C=C/c1cc(OC)c2c(c1)[C@@H](C)[C@H](c1cc(OC)c(OC)c(OC)c1)O2 [licarin C]
cytotoxicity [3]: potently cytotoxic

C/C=C/c1cc(OC)c2c(c1)[C@H](C)[C@@H](c1ccc(O)c(OC)c1)O2 [compound 1, licarin A]
effective concentration for inducing NF-κB phosphorylation [4]: 9.6 nM
cell viability (crystal violet) [1]: remained alive and proliferated, but in a controlled manner
effective concentration for oxidative control ([2]; Hepa1c1c7): 48 nM
growth inhibitory activity [5]: did not produce any discernible growth inhibitory activity
pIC50 [6]: 4.00
% survival (zebrafish (Danio rerio); 48 h exposure, tamoxifen 50 μM, 1 and 2 100 μM, mean ± SEM): 100%
morphological changes / developmental abnormalities (zebrafish (Danio rerio)): lack of morphological changes
